Experimental findings from BindingDB's records for doi:10.7270/Q2028PZ5 (Burnham Center For Chemical Genomics, 2010) are described below.

The target in the assay is G-protein coupled receptor 55 (Homo sapiens, UniProt Q9Y2T6). Kind of assay: blockers of GPR55 signalling, imaged – imaging, image-based, counter-screen for GPR35 antagonist project, SAR follow-up (AID 2397). Conditions: inactive by the depositor's call. Background: A counterscreen serves to expose hits that act by an unwanted route or on another target.
Sequence of G-protein coupled receptor 55 (Q9Y2T6 whole entry): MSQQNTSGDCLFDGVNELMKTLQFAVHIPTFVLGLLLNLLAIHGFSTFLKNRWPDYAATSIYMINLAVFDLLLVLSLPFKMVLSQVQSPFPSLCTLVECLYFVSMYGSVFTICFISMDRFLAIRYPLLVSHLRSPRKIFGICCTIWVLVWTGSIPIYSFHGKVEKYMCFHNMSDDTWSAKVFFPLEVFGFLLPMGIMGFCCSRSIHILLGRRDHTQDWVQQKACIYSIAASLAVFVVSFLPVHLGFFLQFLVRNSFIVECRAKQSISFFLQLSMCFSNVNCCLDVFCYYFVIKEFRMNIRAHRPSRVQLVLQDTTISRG

As usually defined, the IC50 is the point on the concentration scale where inhibition reaches its midpoint. Read a low IC50 as greater potency. Turning to `CC(/C=C1\SC(=S)N(CCCC(=O)Nc2ccc(C(=O)O)c(O)c2)C1=O)=C\c1ccccc1` [2-hydroxy-4-[[4-[(5Z)-5-[(E)-2-methyl-3-phenylprop-2-enylidene]-4-oxo-2-sulfanylidene-3-thiazolidinyl]-1-oxobutyl]amino]benzoic acid], inhibition was half-maximal at 21.7 µM (IC50).
